Experimental data as given in ChEMBL document CHEMBL2073918, “Effect of modulators on the ATPase activity and vanadate nucleotide trapping of human P-glycoprotein” (Biochem Pharmacol, 1998).
pKi: −log10 of the molar value.

Key:
[1] = biological target: T1, ATP-dependent translocase ABCB1 (Homo sapiens, UniProt P08183); assay: TP_TRANSPORTER: inhibition of ATPase activity (Verapamil) in membranes from CEM/VLB100 cells; format: functional, cell membranes, Membrane
[2] = biological target: T1, ATP-dependent translocase ABCB1; assay: TP_TRANSPORTER: ATP hydrolysis in membranes from CEM/VLB100 cells; format: functional, cell membranes, Membrane

T1 sequence (P08183 whole entry): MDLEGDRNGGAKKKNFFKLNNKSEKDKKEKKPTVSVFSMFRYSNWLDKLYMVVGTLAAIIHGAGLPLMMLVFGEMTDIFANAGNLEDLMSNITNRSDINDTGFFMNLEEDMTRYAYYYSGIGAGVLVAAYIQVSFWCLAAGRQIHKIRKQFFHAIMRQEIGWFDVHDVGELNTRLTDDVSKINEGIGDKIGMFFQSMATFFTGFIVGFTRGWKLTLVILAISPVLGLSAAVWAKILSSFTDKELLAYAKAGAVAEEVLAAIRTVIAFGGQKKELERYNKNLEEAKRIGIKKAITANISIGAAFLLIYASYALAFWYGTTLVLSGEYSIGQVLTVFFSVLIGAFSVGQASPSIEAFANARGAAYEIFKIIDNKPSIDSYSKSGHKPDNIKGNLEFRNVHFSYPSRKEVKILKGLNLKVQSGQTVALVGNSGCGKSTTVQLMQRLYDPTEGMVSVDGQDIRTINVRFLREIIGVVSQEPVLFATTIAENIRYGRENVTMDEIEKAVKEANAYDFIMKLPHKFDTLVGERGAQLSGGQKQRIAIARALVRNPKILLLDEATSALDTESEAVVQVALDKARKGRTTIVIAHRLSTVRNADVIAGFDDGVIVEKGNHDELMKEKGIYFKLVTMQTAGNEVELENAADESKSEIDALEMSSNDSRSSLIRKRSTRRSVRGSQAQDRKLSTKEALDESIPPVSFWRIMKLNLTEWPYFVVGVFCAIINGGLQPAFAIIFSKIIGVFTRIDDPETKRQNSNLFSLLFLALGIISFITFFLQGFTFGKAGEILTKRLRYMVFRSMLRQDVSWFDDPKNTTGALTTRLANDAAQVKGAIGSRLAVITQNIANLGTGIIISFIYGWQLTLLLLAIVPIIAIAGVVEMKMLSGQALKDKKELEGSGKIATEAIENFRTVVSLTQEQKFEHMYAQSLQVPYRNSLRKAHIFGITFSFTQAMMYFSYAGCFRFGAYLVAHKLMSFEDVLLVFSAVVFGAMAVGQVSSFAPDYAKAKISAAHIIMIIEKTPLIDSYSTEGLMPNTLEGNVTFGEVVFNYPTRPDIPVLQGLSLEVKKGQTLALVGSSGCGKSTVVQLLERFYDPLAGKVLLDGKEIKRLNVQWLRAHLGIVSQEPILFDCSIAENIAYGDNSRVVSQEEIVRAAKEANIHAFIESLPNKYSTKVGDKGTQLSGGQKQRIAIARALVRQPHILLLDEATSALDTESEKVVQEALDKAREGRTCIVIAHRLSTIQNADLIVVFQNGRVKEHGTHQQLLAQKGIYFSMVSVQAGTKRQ

pKi [1]	Structure (SMILES)	Activity [2]
5.68	COC(=O)[C@@H]1C2CC3c4[nH]c5ccccc5c4CCN3CC2CC[C@@H]1OC(=O)c1cc(OC)c(OC)c(OC)c1 (some centres not stated) [TRIMETHOXYBENZOYLYOHIMBINE]	
	CCC12C=CCN3CC[C@@]4(c5ccc(OC)cc5N(C)[C@H]4[C@@](O)(C(=O)OC)[C@@H]1OC(C)=O)[C@@H]32 (some centres not stated) [VINDOLINE]	is not a substrate [-]
